According to patent publication US6080791A, “Method of treating a viral condition by inhibiting membrane fusion” (priority 1992, dated 2000):
Where two headings read alike, the source gives them in different places.

Columns and labels:
in vitro = settings: dog, mdck
Description: The ELISA-based assay described below (EIA antiviral assay) was used to measure antiviral activity. Cell viability was measured in parallel to distinguish inhibition of viral replication from toxicity.
Infections of MDCK2 cells with virus, compounds, and DMSO were set up identically as for the EIA assay. Following the 15 hour incubation, test compounds were washed away with PBS. 50 μl of MDCK2 growth media and 25 μl 2 mg/ml 3-(4,5-dimethylthiazol-2-yl)-2,5-diphenyl tetrazolium bromide (Sigma) in PBS were added to each well. Plates were returned to 37° C., 5% CO2 for 4 hrs. Crystals were broken up by vigorous mixing following addition of 80 μl isopropanol/0.04 N HCl. After incubation for 30 mins at RT, OD570 was read on an ELISA reader. % Inhibition is the % reduction of OD570 in the wells infected with compound compared to otherwise identical samples with compound omitted.

[1] = test system: influenza-mediated syncytia formation, CV-1 cells; settings: Table 6
hemoglobin = assay: Hb control (quenching of OD570 of hemoglobin); parameters: species or system human
[2] = target: hemagglutinin (BHA), fusion peptide exposure (Influenza A virus (A/X-31(H3N2)), UniProt P03438); format: biochemical, C22 / X31 influenza virus (H3N2); settings: for inhibition in the SPA assay: 1 μM-1 mM
[3] = test system: hemagglutinin-mediated hemolysis of human red blood cells; assay: Hemolysis (HEM) assay; format: cell-based, C22 influenza virus; human red blood cells; settings: for IC50 / inhibition at 1000 µM / inhibition at 100 µM: unidentified influenza virus, Erythrocyte; for inhibition at 1000 µM / inhibition at 100 µM: read-out: hemolysis % ↓ OD
low pH BHA = assay: SPA POST control (nonspecific quenching); parameters: species or system C22 / X31 influenza virus (H3N2)
Description: The compounds being screened by SPA are present during scintillation counting. Some of the chemicals, particularly those that are highly colored, quench the detection of radioactivity. A control ("POST") distinguishes whether apparent inhibition arises from inhibition of the conformational change or from nonspecific effects. The test compound is added to a sample of BHA that had previously been acidified and reneutralized. The mixture is then precipitated as usual. Since the BHA treated in this manner is known to be in the low pH conformation, a reduction in measurable cpm compared to controls with ligand omitted proves the compound interferes with the detection system.
^3 H-Leu BHA was diluted to 10,000 cpm (counts per minute) per 200 μl in MSSH buffer (10 mM HEPES, 10 mM MES, 10 mM succinate, 0.10 M NaCl, pH 7.0) containing 0.1% NP40. Protein was incubated with the specified concentration of trial compound for 25 minutes at RT. The same volume of solvent used to dissolve the compound was added to control samples and the final concentration of DMSO in all solutions was 0.67% v/v. A predetermined amount of 1N HAc was added to bring the reactions to the appropriate pH (usually pH 5.0). Following a 5 minute (unless specified otherwise) incubation at RT, reactions were reneutralized with 1N NaOH. For POST controls, compounds were added to the appropriate concentration after reneutralization. 200 μL aliquots of the protein solution were added to scintillation vials containing 100 μl protein A-SPA beads (Amersham), 5% fetal bovine serum (FBS), and antibody. Vials were incubated overnight at RT with constant shaking. Each reaction used 10 μl of fusion peptide antiserum diluted 1:10 with 50% glycerol. Cpm were detected in a Beckman LS3801 scintillation counter without addition of liquid scintillant.
Apparent inhibition due to nonspecific effects was quantitated from the POST controls with the equation:
observed cpm=true cpm*quench factor

C22 virus in MDCK2 cells [4] = assay: microbe, parasite or virus in culture; settings: unidentified influenza virus
[5] = Description: Synthesis, purification, and characterization of selected compounds are summarized below. Stock solutions were prepared fresh daily. All solutions of the test compounds were prepared in dimethyl-sulfoxide (DMSO).
C22 virus in MDCK2 cells [6] = test system: C22 virus in MDCK2 cells
[7] = Table 7, read-out: HEM, negative log of IC50 (converted)
[8] = MDCK2, 15 h, read-out: infectivity % inhibition
[9] = MDCK2, read-out: INF, negative log of IC50 (converted)

Sequence of hemagglutinin (BHA), fusion peptide exposure (Influenza A virus (A/X-31(H3N2)), UniProt P03438) (P03438 whole entry, looked up, the tested form may be a part): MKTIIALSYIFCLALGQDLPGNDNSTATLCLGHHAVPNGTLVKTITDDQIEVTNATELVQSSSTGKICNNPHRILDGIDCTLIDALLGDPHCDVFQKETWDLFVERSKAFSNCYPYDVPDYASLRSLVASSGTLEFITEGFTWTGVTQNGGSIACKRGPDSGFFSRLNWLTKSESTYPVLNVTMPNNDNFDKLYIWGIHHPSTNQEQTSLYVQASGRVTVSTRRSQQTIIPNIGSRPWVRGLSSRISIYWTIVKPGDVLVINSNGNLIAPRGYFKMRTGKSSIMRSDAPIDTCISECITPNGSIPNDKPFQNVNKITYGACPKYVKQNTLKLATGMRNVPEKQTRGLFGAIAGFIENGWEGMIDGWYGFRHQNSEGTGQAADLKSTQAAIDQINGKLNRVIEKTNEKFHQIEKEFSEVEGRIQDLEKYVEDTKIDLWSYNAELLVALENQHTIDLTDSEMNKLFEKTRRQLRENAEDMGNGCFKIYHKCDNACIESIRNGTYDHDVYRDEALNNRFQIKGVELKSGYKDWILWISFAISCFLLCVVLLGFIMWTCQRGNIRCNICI

Oc1ccc(O)c2c1C1CCC2C1 [Compound 111, 3',6'-dihydroxybenzonorbornane]
cytotoxicity at 15 h, 1 µM (in vitro): 1 ± 5.8%
cytotoxicity at 15 h, 10 µM (in vitro): -1.6 ± 0.8%
cytotoxicity at 15 h, 100 µM (in vitro): 41 ± 17%
syncytia, Table 6 [1]: morph
Hb control % ↓ OD (hemoglobin; log conc -3 (M)): 64.9 ± 0.5%
Hb control % ↓ OD (hemoglobin; log conc -4 (M)): 40.4 ± 1.3%
activity rank among compounds tested [2]: most active
IC50 [3, 7]: 100 to 1000 µM
inhibition at 1000 µM ([3]; log conc -3 (M)): 36.7 ± 0.6%
inhibition at 100 µM ([3]; log conc -4 (M)): -6.9 ± 9.3%
% inhibition, POST control (low pH BHA; log conc -3 (M)): 13.3%
% inhibition, POST control (low pH BHA; log conc -4 (M)): 9.5%
inhibition at 1 µM (C22 virus in MDCK2 cells [4]; [8]): 21.7 ± 4.9%
inhibition at 10 µM (C22 virus in MDCK2 cells [4]; [8]): 57.4 ± 25.2%
inhibition at 100 µM (C22 virus in MDCK2 cells [4]; [8]): 102 ± 10.6%
IC50 (C22 virus in MDCK2 cells [4]; MDCK2, read-out: IC50 infectivity): 10 µM
IC50 (C22 virus in MDCK2 cells [4]; [9]): 10 µM

Oc1ccc(Cl)c2ccccc12 [Compound 101, 4-chloro-1-naphthol]
cytotoxicity at 15 h, 100 µM (in vitro): 97.4%
solubility at 1 mM [5]: only partially soluble at 1 mM
Hb control % ↓ OD (hemoglobin; log conc -3 (M)): 93.0%
inhibition in the SPA assay [2]: showed no inhibition
activity note in Table 7 [2]: inactive
inhibition at 1000 µM ([3]; log conc -3 (M)): 112%

Cc1cc(O)c(C)cc1O [Compound 116, 2,5-dimethylhydroquinone]
cytotoxicity at 15 h, 1 µM (in vitro): 3.6 ± 4.5%
cytotoxicity at 15 h, 10 µM (in vitro): -9.4 ± 5%
cytotoxicity at 15 h, 100 µM (in vitro): -23.6 ± 5%
syncytia, Table 6 [1]: morph
Hb control % ↓ OD (hemoglobin; log conc -3 (M)): 44.0%
Hb control % ↓ OD (hemoglobin; log conc -4 (M)): 31.6%
SPA activity [2]: inactive in the SPA
inhibition of hemolytic activity [3]: did not
IC50 ([3]; 0.25 h, Table 6, 10^-3 = 1 mM, low pH 15 minutes, read-out: IC50 hemolysis): > 1000 µM
IC50 [3, 7]: > 1000 µM
inhibition at 1000 µM ([3]; log conc -3 (M)): 17.3%
inhibition at 100 µM ([3]; log conc -4 (M)): 7.7%
infectivity inhibition (C22 virus in MDCK2 cells [6]): inhibited infectivity
inhibition at 1 µM (C22 virus in MDCK2 cells [4]; [8]): 18.8 ± 1.7%
inhibition at 10 µM (C22 virus in MDCK2 cells [4]; [8]): 42.8 ± 4.7%
inhibition at 100 µM (C22 virus in MDCK2 cells [4]; [8]): 78.1 ± 10%
IC50 (C22 virus in MDCK2 cells [4]; [9]): 10 to 100 µM

O=c1[nH]c(=O)n(O)c2nc[nH]c12 [Compound 113, xanthine 3-N-oxide]
solubility in DMSO ([5]; DMSO): insoluble in DMSO

O=C1c2ccccc2C(=O)c2c(O)ccc(O)c21 [Compound 102, quinizarin]
solubility at 1 mM [5]: only partially soluble at 1 mM
inhibition in the SPA assay [2]: showed no inhibition
activity note in Table 7 [2]: inactive

5,8-dihydro-5,8-methano-1,4-naphthalenediol [Compound 83]
Hb control % ↓ OD (hemoglobin; log conc -3 (M)): 16.5 ± 2.1%
SPA activity [2]: significant activity
inhibition of hemolytic activity [3]: inhibits HA-mediated hemolysis
hemolysis % ↓ OD ([3]; log conc -3 (M), 1000 µM): 67.0 ± 15.1%
hemolysis % ↓ OD ([3]; log conc -4 (M), 100 µM): 17.9 ± 20.0%
hemolysis % ↓ OD ([3]; log conc -5 (M), 10 µM): 11.3 ± 10.3%
infectivity % inhibition (C22 virus in MDCK2 cells [6]; log conc -3 (M)): 51.1 ± 28.3%
infectivity % inhibition (C22 virus in MDCK2 cells [6]; log conc -4 (M)): 33.1 ± 20.2%
infectivity % inhibition (C22 virus in MDCK2 cells [6]; log conc -5 (M)): 8.7 ± 6.7%
infectivity % inhibition (C22 virus in MDCK2 cells [6]; log conc -6 (M)): 12.3 ± 2.5%
% inhibition, POST (Table 1) (low pH BHA; 1 mM, POST control): 2.1%

Oc1ccc(O)c2ccccc12 [Compound 110, 1,4-dihydroxynaphthalene]
cytotoxicity at 15 h, 1 µM (in vitro): 5 ± 12.5%
cytotoxicity at 15 h, 10 µM (in vitro): 19.2 ± 15.6%
cytotoxicity at 15 h, 100 µM (in vitro): 98.3 ± 1.2%
cytotoxicity at 15 h, 1000 µM (in vitro): 96.9 ± 0.4%
solubility at 1 mM [5]: only partially soluble at 1 mM
inhibition at 1 µM (C22 virus in MDCK2 cells [4]; [8]): -9.8 ± 0.6%
inhibition at 10 µM (C22 virus in MDCK2 cells [4]; [8]): 61.1 ± 50.8%
inhibition at 100 µM (C22 virus in MDCK2 cells [4]; [8]): 91.9 ± 11.5%
inhibition at 1000 µM (C22 virus in MDCK2 cells [4]; [8]): 102%
